Experimental data published in ChEMBL document CHEMBL1141717, “New functionalized 1,2,4-trioxepanes: synthesis and antimalarial activity against multi-drug resistant P. yoelii in mice” (2008).
Activity calls are given as the source filed them. The calls are words filed in the database; no cut-off is given here.

Legend:
[1] = test system: Plasmodium yoelii nigeriensis; assay: Antimalarial activity as reduced parasitaemia against multidrug-resistant Plasmodium yoelii nigeriensis infected Swiss mice (Mus musculus) at 96mg/kg peroral dose at day 4; assay type: functional; parameters: scale not given: the % may be the effect or the level left
[2] = test system: Plasmodium yoelii nigeriensis; assay: Antimalarial activity as reduced parasitaemia against multidrug-resistant Plasmodium yoelii nigeriensis infected Swiss mice (Mus musculus) at 96 mg/kg intramuscular dose at day 4; assay type: functional; parameters: scale not given: the % may be the effect or the level left
[3] = test system: Plasmodium yoelii nigeriensis; assay: Antimalarial activity as survivor numbers against multidrug-resistant Plasmodium yoelii nigeriensis infected Swiss mice (Mus musculus) at 96 mg/kg peroral dose at day 28; assay type: functional, organism-based; parameters: dose 96 mg/kg
[4] = test system: Plasmodium yoelii nigeriensis; assay: Antimalarial activity as survivor numbers against multidrug-resistant Plasmodium yoelii nigeriensis infected Swiss mice (Mus musculus) at 96 mg/kg intramuscular dose at day 28; assay type: functional, organism-based; parameters: dose 96 mg/kg
[5] = test system: Plasmodium yoelii nigeriensis; assay: Antimalarial activity as reduced parasitaemia against multidrug-resistant Plasmodium yoelii nigeriensis infected Swiss mice (Mus musculus) at 48 mg/kg peroral dose at day 4; assay type: functional; parameters: scale not given: the % may be the effect or the level left; conditions: route oral
[6] = test system: Plasmodium yoelii nigeriensis; assay: Antimalarial activity as survivor numbers against multidrug-resistant Plasmodium yoelii nigeriensis infected Swiss mice (Mus musculus) at 48 mg/kg peroral dose at day 28; assay type: functional, organism-based; parameters: dose 48 mg/kg
[7] = test system: Plasmodium yoelii nigeriensis; assay: Antimalarial activity as reduced parasitaemia against multidrug-resistant Plasmodium yoelii nigeriensis infected Swiss mice (Mus musculus) at 96 mg/kg peroral dose at day 28; assay type: functional; parameters: scale not given: the % may be the effect or the level left; conditions: route oral

| Compound | Activity [1] | Activity [2] | Activity [3] | Activity [4] | Activity [5] | Activity [6] | Activity [7] |
| --- | --- | --- | --- | --- | --- | --- | --- |
| C=C(c1ccccc1)C1CCOC2(CCC(Nc3ccc(F)cc3)CC2)OO1 (mixture of isomers) | 63.18% | 50% | inactive | inactive |  |  |  |
| C=C(c1ccc(-c2ccccc2)cc1)C1CCOC2(CCC(Nc3ccc(C(F)(F)F)cc3)CC2)OO1 (mixture of isomers) | 68.3% | 75.84% | inactive | inactive |  |  |  |
| C=C(c1ccc(Cl)cc1)C1CCOC2(CCC(Nc3ccccc3)CC2)OO1 (mixture of isomers) | 98.49% | 32.07% | inactive | inactive |  |  |  |
| CCO[C@H]1O[C@@H]2O[C@@]3(C)CC[C@H]4[C@H](C)CC[C@@H]([C@H]1C)[C@@]24OO3 [ARTEMOTIL] |  |  |  |  | 100% | Active |  |
| C=C(c1ccccc1)C1CCOC2(CCC(Nc3ccccc3)CC2)OO1 (mixture of isomers) | 78.58% | 75.47% | inactive | inactive |  |  |  |
| C=C(c1ccc(Cl)cc1)C1CCOC2(CCC(Nc3ccc(C(F)(F)F)cc3)CC2)OO1 (mixture of isomers) | 87.17% | 73.36% | inactive | inactive |  |  |  |
| C=C(c1ccc(-c2ccccc2)cc1)C1CCOC2(CCC(Nc3ccccc3)CC2)OO1 (mixture of isomers) | 100% | 99.01% |  | inactive |  |  | 75% |
| C=C(c1ccc(-c2ccccc2)cc1)C1CCOC2(CCC(Nc3ccc(F)cc3)CC2)OO1 (mixture of isomers) | 98.08% | 57.69% | inactive | inactive |  |  |  |
| C=C(c1ccc(Cl)cc1)C1CCOC2(CCC(=CC(=O)OCC)CC2)OO1 (mixture of isomers) | 85.87% | 41.11% | inactive | inactive |  |  |  |
| C=C(c1ccc(-c2ccccc2)cc1)C1CCOC2(CCC(=CC(=O)OCC)CC2)OO1 (mixture of isomers) | 95.18% | 35.32% | inactive | inactive |  |  |  |
| C=C(c1ccccc1)C1CCOC2(CCC(=CC(=O)OCC)CC2)OO1 (mixture of isomers) | 88.76% | 43.58% | inactive | inactive |  |  |  |
| C=C(c1ccc(Cl)cc1)C1CCOC2(CCC(Nc3ccc(F)cc3)CC2)OO1 (mixture of isomers) | 41.51% | 58.37% | inactive | inactive |  |  |  |
| C=C(c1ccccc1)C1CCOC2(CCC(Nc3ccc(C(F)(F)F)cc3)CC2)OO1 (mixture of isomers) | 100% | 24.32% |  | inactive |  |  | 40% |
